Experimental data: patent US10961510B2, “Exosome active formulation for promoting endothelial cell angiogenesis, and preparation method and application” (INSTITUTE OF MICROCIRCULATION of the CHINESE ACADEMY OF …, priority 2018, dated 2021)

System: human umbilical vein endothelial cells (HUVECs)
Assay: Angiogenesis (tube formation) ability of HUVECs on BME-coated 96-well plate, total branching length by Image J
Format: cell-based
Details: 10 ng/mL TNF-α alone, 18 hours intervention, compared with the Con group, P=0.002
Description: The angiogenesis ability of human umbilical vein endothelial cells (HUVECs) was detected by using a 96-well plate coated with a basement membrane extract (BME). 50 μL of a BME solution was added in each well, which was placed in a cell incubator at 37° C. for 30 minutes to form a jelly substance. 10000 endothelial cells were inoculated in each well, and the volume of the endothelial cell culture medium was 100 μL. […]
According to the real-time observation for the angiogenesis morphology, when each of the above groups was subjected to intervention treatment for 18 hours, the angiogenesis morphology of each group reached a status for the optimum observation and quantitation. […]

TNF-α
endothelial cell angiogenesis (total branching length of each view field): significantly inhibit endothelial cell angiogenesis
